Experimental findings from ChEMBL document CHEMBL5247575 (J Med Chem, 2018) are described below.

The subject of assay [1] is Acinetobacter baumannii. The assay can be described thus: Synergistic antibacterial activity against Acinetobacter baumannii NCTC 13301 producing OXA-23/51 infected in sc dosed Swiss albino mouse assessed as cefepime MIC at 8 ug/ml administered 1 hr post infection and measured upto 7 days. The assay is classed as functional. The following applies: NCTC 13301, 168 h, dose 8 µg/ml, time <= 7 day.

For assay [2], the system named is Acinetobacter baumannii. The assay can be described thus: Synergistic antibacterial activity against Acinetobacter baumannii NCTC 13303 producing OXA-26/51 infected in sc dosed Swiss albino mouse assessed as colistin MIC at 8 ug/ml administered […] post infection and measured upto 7 days. The class given is functional. The following applies: NCTC 13303, 168 h, dose 8 µg/ml, time <= 7 day.

The MIC is the lowest concentration that inhibits growth of the organism.

For `N#C[C@@H]1CC[C@@H]2CN1C(=O)N2OS(=O)(=O)[O-].[Na+]`, the MIC in the assay on Acinetobacter baumannii [1] was greater than 256 µg/mL; in the assay with Acinetobacter baumannii [2] it was 0.5 µg/mL.
